Assay results as given in paper PMC8286840, “Identifying SARS-CoV-2 antiviral compounds by screening for small molecule inhibitors of Nsp3 papain-like protease” (Biochemical Journal, 2021).
Where a name gives a salt, the structure may show the parent alone. Read-outs that look alike come from different tables or passages of the source.

Legend:
[1] = target: T1, SARS-CoV-2 PLpro (nsp3 1564–1878) (Severe acute respiratory syndrome coronavirus 2, UniProt P0DTD1); assay: biochemical; parameters: FRET-quenched peptide (Pro3) cleavage by PLpro, 10 min pre-incubation, slope over 20 min, normalised to no-compound control; conditions: low concentration screen, read-out: % of control remaining
[2] = target: T1, SARS-CoV-2 PLpro (nsp3 1564–1878); assay: biochemical; parameters: FRET-quenched peptide (Pro3) cleavage by PLpro, 10 min pre-incubation, slope over 20 min, normalised to no-compound control; conditions: high concentration screen, read-out: % of control remaining

Cn1cnc(N)c2ncnc1-2 [3-Methyladenine]
remaining activity at 1.25 µM ([1]; Well no.=5079): 104% | remaining activity at 1.25 µM ([1]; Well no.=7447): 103% | remaining activity at 3.75 µM ([2]; Well no.=7447): 106%

CS(=O)(=O)c1ccc([C@H](O)[C@@H](COC(=O)CN)NC(=O)C(Cl)Cl)cc1 [Thiamphenicol glycinate]
remaining activity at 1.25 µM ([1]; Well no.=2025): 109% | remaining activity at 3.75 µM ([2]; Well no.=2025): 108%

COc1ccc(C(=O)Nc2c(Cl)cncc2Cl)cc1OC1CCCC1 [3-(cyclopentyloxy)-N-(3,5-dichloro-4-pyridinyl)-4-methoxybenzamide]
remaining activity at 1.25 µM ([1]; Well no.=5876): 105% | remaining activity at 3.75 µM ([2]; Well no.=5876): 104%

Cn1c(=O)cc(N2CCC[C@@H](N)C2)n(Cc2cc(F)ccc2C#N)c1=O [Trelagliptin]
remaining activity at 1.25 µM ([1]; Well no.=8480): 99.1% | remaining activity at 3.75 µM ([2]; Well no.=8480): 98.9%

Cc1cccc(C)c1NC1=NCCCS1 [Xylazine (hydrochloride)]
remaining activity at 1.25 µM ([1]; Well no.=6847): 101% | remaining activity at 3.75 µM ([2]; Well no.=6847): 95.9%

NS(=O)(=O)NCCNc1nonc1/C(=N/O)Nc1ccc(F)c(Br)c1 [Epacadostat (INCB024360)]
remaining activity at 1.25 µM ([1]; Well no.=8722): 99.6% | remaining activity at 3.75 µM ([2]; Well no.=8722): 95.9%

Oc1cc(O)c(Cl)cn1 [Gimeracil]
remaining activity at 1.25 µM ([1]; Well no.=5056): 101% | remaining activity at 3.75 µM ([2]; Well no.=5056): 104%

CC1=C2[C@H]3OC(=O)[C@@H](C)[C@@H]3CC[C@@]2(C)C=CC1=O [Santonin]
remaining activity at 1.25 µM ([1]; Well no.=3717): 90% | remaining activity at 3.75 µM ([2]; Well no.=3717): 95.8%

CCCCCCCCCCCCCCCC(=O)Nc1ccn([C@@H]2O[C@H](CO)[C@@H](O)[C@@H]2C#N)c(=O)n1 [Sapacitabine]
remaining activity at 1.25 µM ([1]; Well no.=7908): 98.8% | remaining activity at 3.75 µM ([2]; Well no.=7908): 102%

COc1cc(Nc2ncc3ccn(-c4cccc(CCC#N)c4)c3n2)cc(OC)c1OC [Keratinocyte Differentiation Inducer]
remaining activity at 1.25 µM ([1]; Well no.=2379): 101% | remaining activity at 3.75 µM ([2]; Well no.=2379): 103%

O=C(O)c1ccccc1O [Sodium salicylate]
remaining activity at 1.25 µM ([1]; Well no.=4971): 98.6% | remaining activity at 3.75 µM ([2]; Well no.=4971): 97.2%

CC(C)(Sc1ccc(CCN(CCCCC2CCCCC2)C(=O)NC2CCCCC2)cc1)C(=O)O [GW7647]
remaining activity at 1.25 µM ([1]; Well no.=621): 95.2% | remaining activity at 3.75 µM ([2]; Well no.=621): 96.3%

COc1cc2ncnc(Nc3ccc(Cl)cc3Cl)c2cc1OC [Ste11 MAPKKK Activation Inhibitor]
remaining activity at 1.25 µM ([1]; Well no.=2673): 96.8% | remaining activity at 3.75 µM ([2]; Well no.=2673): 99.8%

O=C(O[C@H]1C[C@H]2CC[C@@H](C1)[N+]21CCCC1)C(O)(c1ccccc1)c1ccccc1 [Trospium (chloride)]
remaining activity at 1.25 µM ([1]; Well no.=6571): 103% | remaining activity at 3.75 µM ([2]; Well no.=6571): 102%

CCN1C[C@H](C)n2c(c(O)c3c(=O)n(Cc4ccc(F)c(Cl)c4)nc(C(=O)NC)c32)C1=O [MK-2048]
remaining activity at 1.25 µM ([1]; Well no.=4731): 107% | remaining activity at 3.75 µM ([2]; Well no.=4731): 104%

COc1ccc(CCCOC(Cn2ccnc2)c2ccc(OC)cc2)cc1 (centres unmarked) [SKF 96365]
remaining activity at 1.25 µM ([1]; Well no.=1412): 98.9% | remaining activity at 3.75 µM ([2]; Well no.=1412): 100%

CNC(=O)c1ccc2cc([C@@]3(O)CCn4cncc43)ccc2c1 [TAK-700 (Orteronel)]
remaining activity at 1.25 µM ([1]; Well no.=4725): 98.2% | remaining activity at 3.75 µM ([2]; Well no.=4725): 96.7%

O=C1N(c2ccccc2)c2ccccc2C1(Cc1ccncc1)Cc1ccncc1 [Linopirdine]
remaining activity at 1.25 µM ([1]; Well no.=822): 104% | remaining activity at 3.75 µM ([2]; Well no.=822): 105%

CC(C(=O)O)c1ccc(-c2ccccc2)c(F)c1 (centres unmarked) [Flurbiprofen]
remaining activity at 1.25 µM ([1]; Well no.=2118): 99.6% | remaining activity at 3.75 µM ([2]; Well no.=2118): 101%

O=C(NCCCCCCNC(=O)ON=C1CCCCC1)ON=C1CCCCC1 [RHC 80267]
remaining activity at 1.25 µM ([1]; Well no.=5818): 96.6% | remaining activity at 3.75 µM ([2]; Well no.=5818): 99.1%

C/C(=C\c1ccc(C(=O)O)cc1)c1ccc2c(c1)C(C)(C)CCC2(C)C [TTNPB]
remaining activity at 1.25 µM ([1]; Well no.=1429): 97.8% | remaining activity at 1.25 µM ([1]; Well no.=4436): 93% | remaining activity at 3.75 µM ([2]; Well no.=1429): 99.8% | remaining activity at 3.75 µM ([2]; Well no.=4436): 100%

CCCN(CCC)CCc1cccc2c1CC(=O)N2 [Ropinirole (hydrochloride)]
remaining activity at 1.25 µM ([1]; Well no.=8205): 99.3% | remaining activity at 3.75 µM ([2]; Well no.=8205): 90.6%

O=C(O)c1ccccc1Nc1cccc(C(F)(F)F)c1 [Flufenamic acid]
remaining activity at 1.25 µM ([1]; Well no.=1639): 104% | remaining activity at 3.75 µM ([2]; Well no.=1639): 105%

CC(=O)N[C@@H](CS)C(=O)O [Acetylcysteine]
remaining activity at 1.25 µM ([1]; Well no.=6161): 102% | remaining activity at 1.25 µM ([1]; Well no.=8266): 99.9% | remaining activity at 3.75 µM ([2]; Well no.=6161): 103% | remaining activity at 3.75 µM ([2]; Well no.=8266): 101%

CC1=C(C)C(=O)C(CCCCC#CCCCC#CCO)=C(C)C1=O [AA-861]
remaining activity at 1.25 µM ([1]; Well no.=109): 106% | remaining activity at 1.25 µM ([1]; Well no.=3941): 105% | remaining activity at 3.75 µM ([2]; Well no.=109): 103% | remaining activity at 3.75 µM ([2]; Well no.=3941): 102%

NC1=N[C@@]2(c3cc(NC(=O)c4ccc(F)cn4)ccc3F)COC[C@H]2CS1 [LY2886721]
remaining activity at 1.25 µM ([1]; Well no.=4774): 99.9% | remaining activity at 3.75 µM ([2]; Well no.=4774): 102%

O=C(O)CC[C@H]1CC[C@@](c2cc(F)ccc2F)(S(=O)(=O)c2ccc(Cl)cc2)CC1 [MK-0752]
remaining activity at 1.25 µM ([1]; Well no.=4639): 97.6% | remaining activity at 3.75 µM ([2]; Well no.=4639): 99.5%

CN(C[C@@H]1COCCO1)S(=O)(=O)Nc1ccc2ccc3ncc(-c4cnn(C)c4)cc3c(=O)c2c1 [MK-2461]
remaining activity at 1.25 µM ([1]; Well no.=4737): 105% | remaining activity at 3.75 µM ([2]; Well no.=4737): 105%

CC(C(=O)O)c1cccc(Oc2ccccc2)c1 (centres unmarked) [Fenoprofen]
remaining activity at 1.25 µM ([1]; Well no.=2082): 98.6% | remaining activity at 3.75 µM ([2]; Well no.=2082): 99.2%

C[C@@H](O)[C@@H]1NC(=O)[C@H](CCCCN)NC(=O)[C@@H](Cc2c[nH]c3ccccc23)NC(=O)[C@H](Cc2ccccc2)NC(=O)[C@@H](NC(=O)[C@H](N)Cc2ccccc2)CSSC[C@@H](C(=O)N[C@H](CO)[C@@H](C)O)NC1=O [Octreotide (acetate)]
remaining activity at 1.25 µM ([1]; Well no.=6556): 92.6% | remaining activity at 1.25 µM ([1]; Well no.=7396): 97.5% | remaining activity at 3.75 µM ([2]; Well no.=6556): 94.1% | remaining activity at 3.75 µM ([2]; Well no.=7396): 93.2%

CCCCC[C@@H](O)/C=C/[C@H]1[C@H](C/C=C\CCCC(=O)O)[C@@H](O)C[C@@H]1O [9b,11a Prostaglandin F2]
remaining activity at 1.25 µM ([1]; Well no.=4521): 101% | remaining activity at 3.75 µM ([2]; Well no.=4521): 103%

O=C(O)[C@]1(Cc2cccc(Nc3nccs3)n2)CC[C@@H](Oc2cccc(Cl)c2F)CC1 [MK-5108 (VX-689)]
remaining activity at 1.25 µM ([1]; Well no.=4733): 101% | remaining activity at 3.75 µM ([2]; Well no.=4733): 97.2%

CCOC(=O)C1=C(C)NC(C)=C(C(=O)OC)C1c1cccc([N+](=O)[O-])c1 (centres unmarked) [Nitrendipine]
remaining activity at 1.25 µM ([1]; Well no.=796): 92.2% | remaining activity at 1.25 µM ([1]; Well no.=1719): 99.4% | remaining activity at 3.75 µM ([2]; Well no.=796): 94.4% | remaining activity at 3.75 µM ([2]; Well no.=1719): 103%
